In assay [1] the target is T1, recombinant human JAK1 kinase domain protein (Residues 854-1154) (Homo sapiens, UniProt P23458).
T1 construct: human JAK1 kinase domain protein (Residues 854-1154); purchased Proteros Biostructures GmbH (Martinsried, Germany); host or cells: insect cells
As to the kind of experiment: JAK1 biochemical assay (LabChip mobility shift, Ki). The conditions noted are these: read-out: Biochem JAK1 Ki.

Assay [2] concerns the target Recombinant human JAK2 kinase domain protein (Residues 812-1132) (Homo sapiens, UniProt O60674). As to the kind of experiment: JAK2 biochemical assay (LabChip mobility shift, Ki). The following applies: Biochem JAK2 Ki.
Assay [3] deals with IL-13-stimulated STAT6 phosphorylation in human lung bronchial epithelial BEAS-2B cell line. Put plainly: P-STAT6 BEAS-2B + IL-13 cell assay. In kind it is cell-based. The following applies: BEAS2B cells, IL13 stimulation, read-out: Cellular JAK1 PSTAT6 BEAS2B + IL13. The method, boiled down: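 Phospho-STAT6 (Tyr641) was quantified in lysates by MSD electrochemiluminescence after human IL-13 challenge (250 ng/mL stock, 15 min, 37 °C). Before that, BEAS-2B cells cultured 48 h had 1 h compound exposure over 10 concentrations. Percent of control was fitted to a four-parameter logistic model to give IC50.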

Like-named read-outs stand apart in the source and are kept apart here.

For 16 molecules, Ki and IC50 results are on record in patent publication US12528812B2 (Genentech, Inc., priority 2020, dated 2026).

Chain of Recombinant human JAK2 kinase domain protein (Residues 812-1132) (O60674 812-1132): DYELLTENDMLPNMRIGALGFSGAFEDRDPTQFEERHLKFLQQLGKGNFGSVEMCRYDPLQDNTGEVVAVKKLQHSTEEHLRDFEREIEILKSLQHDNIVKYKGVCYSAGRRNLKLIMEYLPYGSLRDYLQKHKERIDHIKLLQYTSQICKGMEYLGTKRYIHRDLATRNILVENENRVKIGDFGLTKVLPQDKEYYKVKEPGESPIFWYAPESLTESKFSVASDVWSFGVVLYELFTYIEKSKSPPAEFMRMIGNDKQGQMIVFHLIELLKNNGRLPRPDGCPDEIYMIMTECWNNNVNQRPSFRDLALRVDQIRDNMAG
T1 sequence (P23458 854-1154): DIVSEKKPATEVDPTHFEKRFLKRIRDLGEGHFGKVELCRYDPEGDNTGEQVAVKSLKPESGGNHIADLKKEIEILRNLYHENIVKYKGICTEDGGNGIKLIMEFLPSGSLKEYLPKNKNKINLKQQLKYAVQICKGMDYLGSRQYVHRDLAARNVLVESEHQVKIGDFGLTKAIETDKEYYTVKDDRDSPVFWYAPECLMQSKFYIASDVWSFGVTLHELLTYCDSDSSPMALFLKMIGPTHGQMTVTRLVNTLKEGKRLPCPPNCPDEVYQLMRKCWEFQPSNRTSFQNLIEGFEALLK

On to `Cn1cc(NC(=O)c2cnn3cccnc23)c(-c2cc(Oc3ccc(CC(=O)N4CCOCC4)cc3)ccc2OC(F)F)n1` [Example 156, N-[3-[2-(difluoromethoxy)-5-[4-(2-morpholino-2-oxo-ethyl)phenoxy]phenyl]-1-methyl-pyrazol-4-yl]pyrazolo[1,5-a]pyrimidine-3-carboxamide], for which the inhibition constant (Ki) (as a rule, the equilibrium dissociation constant of an inhibitor or competing ligand from its target) in assay [1] worked out at 0.27 nM; in assay [2], 0.12 nM. The IC50 in assay [3] (Homo sapiens, BEAS-2B) was found to be 23 nM.

Turning to `O=C(Nc1cn(C2COC2)nc1-c1cc(Oc2ccc3c(c2)CNCC3)ccc1OC(F)F)c1cnn2cccnc12` [Example 157, N-[3-[2-(difluoromethoxy)-5-(1,2,3,4-tetrahydroisoquinolin-7-yloxy)phenyl]-1-(oxetan-3-yl)pyrazol-4-yl]pyrazolo[1,5-a]pyrimidine-3-carboxamide], the figures for the Ki in assay [1] and in assay [2] were 0.31 nM and 0.28 nM, respectively. Besides, the IC50 in assay [3] (Homo sapiens, BEAS-2B) was 28 nM.

On to `CN(C)C(=O)c1cncc(Oc2ccc(OC(F)F)c(-c3nn(C)cc3NC(=O)c3cnn4cccnc34)c2)c1` [Example 159, N-[3-[2-(difluoromethoxy)-5-[[5-(dimethylcarbamoyl)-3-pyridyl]oxy]phenyl]-1-methyl-pyrazol-4-yl]pyrazolo[1,5-a]pyrimidine-3-carboxamide], for which the Ki in assay [1] was found to be 0.54 nM; in assay [2], 0.37 nM. Further, the IC50 in assay [3] (Homo sapiens, BEAS-2B) turned out to be 43 nM.

On to `Cn1cc(Oc2ccc(OC(F)F)c(-c3nn(CC(N)=O)cc3NC(=O)c3cnn4cccnc34)c2)cn1` [Example 174, N-[1-(2-amino-2-oxo-ethyl)-3-[2-(difluoromethoxy)-5-(1-methylpyrazol-4-yl)oxy-phenyl]pyrazol-4-yl]pyrazolo[1,5-a]pyrimidine-3-carboxamide], for which the Ki in assay [1] was 1.6 nM; in assay [2], 0.92 nM. Also, the IC50 in assay [3] (Homo sapiens, BEAS-2B) is 240 nM.

For `Cn1cc(NC(=O)c2cnn3cccnc23)c(-c2cc(Oc3ccccn3)ccc2OC(F)F)n1` [Example 175, N-[3-[2-(difluoromethoxy)-5-(2-pyridyloxy)phenyl]-1-methyl-pyrazol-4-yl]pyrazolo[1,5-a]pyrimidine-3-carboxamide], the results for the Ki in assay [1] and in assay [2] were 1.1 nM and 0.57 nM, respectively. Also, in assay [3] (Homo sapiens, BEAS-2B), the IC50 was 68 nM.

In the case of `Cn1cc(NC(=O)c2cnn3cccnc23)c(-c2cc(Oc3cnn(C4CNCC4O)c3)ccc2OC(F)F)n1` (stereo not drawn) [Example 176, N-[3-[2-(difluoromethoxy)-5-[1-(4-hydroxypyrrolidin-3-yl)pyrazol-4-yl]oxy-phenyl]-1-methyl-pyrazol-4-yl]pyrazolo[1,5-a]pyrimidine-3-carboxamide], the inhibition constant (Ki) amounted to 0.25 nM in assay [1] and 0.21 nM in assay [2]. Moreover, the IC50 in assay [3] (Homo sapiens, BEAS-2B) amounted to 210 nM.

As for `Cn1cc(NC(=O)c2cnn3cccnc23)c(-c2cc(Oc3cnn(C4CNCC4O)c3)ccc2OC(F)F)n1` (stereo not drawn) [Example 177, N-[3-[2-(difluoromethoxy)-5-[1-(4-hydroxypyrrolidin-3-yl)pyrazol-4-yl]oxy-phenyl]-1-methyl-pyrazol-4-yl]pyrazolo[1,5-a]pyrimidine-3-carboxamide], the Ki was 0.57 nM in assay [1] and 0.34 nM in assay [2]. In assay [3], the IC50 amounted to 330 nM.

Turning to `Cn1cc(NC(=O)c2cnn3cccnc23)c(-c2cc(Oc3cnn(C4CCNCC4O)c3)ccc2OC(F)F)n1` (stereo not drawn) [Example 182, N-[3-[2-(difluoromethoxy)-5-[1-(3-hydroxy-4-piperidyl)pyrazol-4-yl]oxy-phenyl]-1-methyl-pyrazol-4-yl]pyrazolo[1,5-a]pyrimidine-3-carboxamide], the Ki was 0.65 nM in assay [1] and 0.43 nM in assay [2]. Moreover, the IC50 in assay [3] (Homo sapiens, BEAS-2B) turned out to be 160 nM.

Consider `Cn1cc(NC(=O)c2cnn3cccnc23)c(-c2cc(Oc3cnn(C4CCNCC4O)c3)ccc2OC(F)F)n1` (stereo not drawn) [Example 183, N-[3-[2-(difluoromethoxy)-5-[1-(3-hydroxy-4-piperidyl)pyrazol-4-yl]oxy-phenyl]-1-methyl-pyrazol-4-yl]pyrazolo[1,5-a]pyrimidine-3-carboxamide], for which the inhibition constant (Ki) in assay [1] worked out at 0.41 nM; in assay [2], 0.22 nM. In addition, the IC50 in assay [3] came out at 150 nM.

In the case of `Cn1cc(NC(=O)c2cnn3cccnc23)c(-c2cc(Oc3cnn([C@H]4C[C@H](N)C4)c3)ccc2OC(F)F)n1` [Example 188, N-[3-[5-[1-(3-aminocyclobutyl)pyrazol-4-yl]oxy-2-(difluoromethoxy)phenyl]-1-methyl-pyrazol-4-yl]pyrazolo[1,5-a]pyrimidine-3-carboxamide], the results for the inhibitory constant (Ki) in assay [1] and in assay [2] were 0.91 nM and 0.77 nM, respectively. Moreover, the IC50 in assay [3] (Homo sapiens, BEAS-2B) stood at 150 nM.

For `CN1CC(O)(c2cncc(Oc3ccc(OC(F)F)c(-c4nn(C)cc4NC(=O)c4cnn5cccnc45)c3)c2)C1` [Example 189, N-[3-[2-(difluoromethoxy)-5-[[5-(3-hydroxy-l-methyl-azetidin-3-yl)-3-pyridyl]oxy]phenyl]-1-methyl-pyrazol-4-yl]pyrazolo[1,5-a]pyrimidine-3-carboxamide], the Ki in assay [1] stood at 0.57 nM; in assay [2], 0.39 nM. The IC50 in assay [3] (Homo sapiens, BEAS-2B) came to 78 nM.

Take `CN1CCC(O)(Cn2cc(Oc3ccc(OC(F)F)c(-c4nn(C)cc4NC(=O)c4cnn5cccnc45)c3)cn2)CC1` [Example 191, N-[3-[2-(difluoromethoxy)-5-[1-[(4-hydroxy-1-methyl-4-piperidyl)methyl]pyrazol-4-yl]oxy-phenyl]-1-methyl-pyrazol-4-yl]pyrazolo[1,5-a]pyrimidine-3-carboxamide]: the Ki in assay [1] was 0.54 nM; in assay [2], 0.19 nM. Moreover, the IC50 in assay [3] (Homo sapiens, BEAS-2B) was found to be 110 nM.

As for `CN1CCCC(O)(Cn2cc(Oc3ccc(OC(F)F)c(-c4nn(C)cc4NC(=O)c4cnn5cccnc45)c3)cn2)C1` (stereo not drawn) [Example 193, N-[3-[2-(difluoromethoxy)-5-[1-[(3-hydroxy-l-methyl-3-piperidyl)methyl]pyrazol-4-yl]oxy-phenyl]-1-methyl-pyrazol-4-yl]pyrazolo[1,5-a]pyrimidine-3-carboxamide], the Ki in assay [1] worked out at 1.6 nM; in assay [2], 2.3 nM. The IC50 in assay [3] (Homo sapiens, BEAS-2B) is 58 nM.

Turning to `CN1CCCC(O)(Cn2cc(Oc3ccc(OC(F)F)c(-c4nn(C)cc4NC(=O)c4cnn5cccnc45)c3)cn2)C1` (stereo not drawn) [Example 194, N-[3-[2-(difluoromethoxy)-5-[1-[(3-hydroxy-l-methyl-3-piperidyl)methyl]pyrazol-4-yl]oxy-phenyl]-1-methyl-pyrazol-4-yl]pyrazolo[1,5-a]pyrimidine-3-carboxamide], the inhibition constant (Ki) in assay [1] amounted to 2.1 nM; in assay [2], 1.4 nM. In addition, the IC50 in assay [3] turned out to be 64 nM.

With `CN1CCCC(O)(Cn2cc(Oc3ccc(OC(F)F)c(-c4nn(C)cc4NC(=O)c4cnn5cccnc45)c3)cn2)CC1` (stereo not drawn) [Example 196, N-[3-[2-(difluoromethoxy)-5-[1-[(4-hydroxy-1-methyl-azepan-4-yl)methyl]pyrazol-4-yl]oxy-phenyl]-1-methyl-pyrazol-4-yl]pyrazolo[1,5-a]pyrimidine-3-carboxamide], the results for the Ki in assay [1] and in assay [2] were 0.8 nM and 0.52 nM, respectively. The IC50 in assay [3] (Homo sapiens, BEAS-2B) worked out at 120 nM.

As for `CN1CCCC(O)(Cn2cc(Oc3ccc(OC(F)F)c(-c4nn(C)cc4NC(=O)c4cnn5cccnc45)c3)cn2)CC1` (stereo not drawn) [Example 197, N-[3-[2-(difluoromethoxy)-5-[1-[(4-hydroxy-l-methyl-azepan-4-yl)methyl]pyrazol-4-yl]oxy-phenyl]-1-methyl-pyrazol-4-yl]pyrazolo[1,5-a]pyrimidine-3-carboxamide], the Ki in assay [1] is 0.81 nM; in assay [2], 0.51 nM. In assay [3], the IC50 was 130 nM.
